Where only a bound is given, the exact number is not on record here.

In general, melting point refers to the temperature, or range, at which the solid turns liquid. For orientation: mortality means the share of the test organisms that died.

Data set [1] has as its system green peach aphid (Myzus persicae). The experiment in a line: Myzus persicae-Test (MYZUPE). The class given is in vivo. As to conditions: 144 h, spray on cabbage leaves, after 6 days. The protocol: Myzus persicae-Test (MYZUPE)
(§1) After 6 days mortality in % is determined.

Data set [2] relates to larvae of the diamondback moth (Plutella xylostella/sensible strain). Kind of data set: Plutella xylostella-Test (PLUTMA). It is filed as in vivo. As to conditions: in Brassica oleracea, 168 h, read-out: mortality in %. From the text: Plutella xylostella-Test (PLUTMA)
The test system of data set [3] is fall armyworm larvae (Spodoptera frugiperda). The experiment in a line: Spodoptera frugiperda-Test (SPODFR spray application). The class given is in vivo. As to conditions: 168 h, spray on maize leaf sections, after 7 days. From the text: Spodoptera frugiperda-Test (SPODFR Spray Application)
(§2) • Solvent: 78.0 parts by weight acetone • 1.5 parts by weight dimethylformamide • Emulsifier: 0.5 parts by weight alkylarylpolyglcolether
Maize (Zea mais) leaf sections are sprayed with a preparation of the active ingredient of the desired concentration. Once dry, the leaf sections are infested with fall armyworm larvae (Spodoptera frugiperda). […] 100% means that all caterpillars have been killed and 0% means that none of the caterpillars have been killed.

Data set [4] deals with two spotted spidermite (Tetranychus urticae). Kind of data set: Tetranychus urticae-Test, OP-resistant (TETRUR spray application). It is filed as in vivo. To be noted: 144 h, spray on French beans, after 6 days.
Description: Tetranychus urticae-Test; (OP-Resistant (TETRUR Spray Application)
as §2

In data set [5] the test system is Phytophthora infestans. The class given is in vivo. As to conditions: 500 ppm, tomato, preventive, 7 days after the inoculation.
The test system of data set [6] is white fly (Bemisia tabaci). The experiment in a line: Bemisia tabaci-Test (BEMITA). To be noted: 168 h, spray on cotton plants, after 7 days. It is filed as in vivo. From the text:
Bemisia tabaci-Test (BEMITA)
Cotton plants (Gossypium hirsutum) infested with eggs, larvae and pupae of the white fly (Bemisia tabaci) are sprayed with a test solution containing the desired concentration of the active ingredient.

Data set [7] concerns cotton aphid (Aphis gossypii). Kind of data set: Aphis gossypii Test (APHIGO). It is filed as in vivo. As to conditions: 144 h, spray on cotton leaves, after 6 days. How it is done: Aphis gossypii Test (APHIGO)
as §1

The subject of data set [8] is mustard beetle larvae (Phaedon cochleariae). Kind of data set: Phaedon cochleariae larvae-Test. To be noted: in Brassica oleracea, 168 h, read-out: mortality in %.
Data set [9] relates to braun planthopper (Nilaparvata lugens). Kind of data set: Nilaparvata lugens-Test (NILALU hydroponic application). The class given is in vivo. As to conditions: after the specified period of time. From the text: Nilaparvata lugens-Test; (NILALU Hydroponic Application)
(§3) • Solvent: 78.0 parts by weight of acetone • 1.5 parts by weight of dimethylformamide • Emulsifier: 0.5 parts by weight of alkylaryl polyglycolether

The subject of data set [10] is am. serpentine leaf miner (Liriomyza trifolii). Kind of data set: Liriomyza trifolii-Test (LIRITR spray application). As to conditions: 168 h, spray on French bean leaf-disks, after 7 days. It is filed as in vivo.
Description: Liriomyza trifolii-Test (LIRITR Spray Application)
as §3
French bean (Phaseolus vulgaris) leaf-disks infested with larvaes of the am. serpentine leaf miner (Liriomyza trifolii) are sprayed with a test solution containing the desired concentration of the active ingredient.

Data set [11] concerns green peach aphid (Myzus persicae). The experiment in a line: Myzus persicae-Test (MYZUPE spray application). The class given is in vivo. As to conditions: 144 h, spray on Chinese cabbage leaf-disks, after 6 days.
Description: Myzus persicae-Test; (MYZUPE Spray Application)
as §2
Chinese cabbage (Brassica pekinesis) leaf-disks infected with all instars of the green peach aphid (Myzus persicae), are sprayed with a preparation of the active ingredient at the desired concentration.

The test system of data set [12] is two-spotted spider mite (Tetranychus urticae). The experiment in a line: Tetranychus-Test (OP-resistant). As to conditions: read-out: mortality in %. It is filed as in vivo. From the text:
Tetranychus-Test (OP-Resistant)

Data set [13] deals with mustard beetle larvae (Phaedon cochleariae). The experiment in a line: Phaedon cochleariae-Test (PHAECO spray application). As to conditions: 168 h, spray on Chinese cabbage leaf-disks, after 7 days. It is filed as in vivo.
Description: Phaedon cochleariae-Test; (PHAECO Spray Application)
as §3
Chinese cabbage (Brassica pekinesis) leaf-disks are sprayed with a preparation of the active ingredient of the desired concentration.

For the molecule `Cc1ccc(C)c(C2=C(OC(=O)N(C)CCC#N)CC3(CCOCC3)CC2=O)c1`, the melting point was in the range of 108 to 114 °C.

As for `Cc1ccc(-c2ccc(Cl)cc2)cc1C1=C(O)CC2(CCOCC2)CC1=O` [Compound T3], the mortality at 100 ppm in data set [1], in data set [2], in [7] and in [8] was ≥ 80% throughout. Moreover, the mortality at 500 g/ha in [3], in [4], in [9] and in data set [10] was ≥ 80% in each case. In addition, the Efficacy in % in data set [5] stood at 75%. Also, the mortality at 20 ppm in [6] was ≥ 80%.

Consider `CCc1cc(C)cc(CC)c1C1=C(O)CC2(CCOCC2)CC1=O` [Compound T22], for which, in data set [11], the mortality at 500 g/ha is ≥ 80%.

Take `Cc1ccc(-c2ccc(F)cc2)cc1C1=C(O)CC2(CCOCC2)CC1=O` [Compound T74]: the mortality at 500 g/ha in [3], in data set [9], in [13] and in data set [10] was ≥ 80% throughout. For the same molecule, the mortality at 20 ppm in data set [12] and in data set [6] was ≥ 80% in each case.

As to `O=C1CC2(CCOCC2)CC(O)=C1c1cc(-c2ccc(F)cc2)ccc1Cl` [Compound T75], the mortality at 500 g/ha in data set [11], in [4] and in [10] was ≥ 80% throughout. Besides, the mortality at 20 ppm in [6] was ≥ 80%.

With `Cc1ccc(-c2ccc(F)cc2)c(C)c1C1=C(O)CC2(CCOCC2)CC1=O` [Compound T76], the mortality at 500 g/ha in [11], in [3], in data set [4] and in data set [13] was ≥ 80% in each case.

Source of the values: patent US8487118B2, “Cyclic diones and their use as insecticides, acaricides and/or fungicides” (Bayer CropScience AG, priority 2009, dated 2013).
